ChEMBL document CHEMBL3774343, “Discovery of CREBBP Bromodomain Inhibitors by High-Throughput Docking and Hit Optimization Guided by Molecular Dynamics” (J Med Chem, 2016)
Peptide text beside a SMILES is read from it.

Assays:
[1] = biological target: T1, CREB-binding protein (Homo sapiens, UniProt Q92793); assay: Binding affinity to human CREBBP at 100 uM by thermal shift assay
Target sequence in this assay (Q92793 2-2442 limits assumed): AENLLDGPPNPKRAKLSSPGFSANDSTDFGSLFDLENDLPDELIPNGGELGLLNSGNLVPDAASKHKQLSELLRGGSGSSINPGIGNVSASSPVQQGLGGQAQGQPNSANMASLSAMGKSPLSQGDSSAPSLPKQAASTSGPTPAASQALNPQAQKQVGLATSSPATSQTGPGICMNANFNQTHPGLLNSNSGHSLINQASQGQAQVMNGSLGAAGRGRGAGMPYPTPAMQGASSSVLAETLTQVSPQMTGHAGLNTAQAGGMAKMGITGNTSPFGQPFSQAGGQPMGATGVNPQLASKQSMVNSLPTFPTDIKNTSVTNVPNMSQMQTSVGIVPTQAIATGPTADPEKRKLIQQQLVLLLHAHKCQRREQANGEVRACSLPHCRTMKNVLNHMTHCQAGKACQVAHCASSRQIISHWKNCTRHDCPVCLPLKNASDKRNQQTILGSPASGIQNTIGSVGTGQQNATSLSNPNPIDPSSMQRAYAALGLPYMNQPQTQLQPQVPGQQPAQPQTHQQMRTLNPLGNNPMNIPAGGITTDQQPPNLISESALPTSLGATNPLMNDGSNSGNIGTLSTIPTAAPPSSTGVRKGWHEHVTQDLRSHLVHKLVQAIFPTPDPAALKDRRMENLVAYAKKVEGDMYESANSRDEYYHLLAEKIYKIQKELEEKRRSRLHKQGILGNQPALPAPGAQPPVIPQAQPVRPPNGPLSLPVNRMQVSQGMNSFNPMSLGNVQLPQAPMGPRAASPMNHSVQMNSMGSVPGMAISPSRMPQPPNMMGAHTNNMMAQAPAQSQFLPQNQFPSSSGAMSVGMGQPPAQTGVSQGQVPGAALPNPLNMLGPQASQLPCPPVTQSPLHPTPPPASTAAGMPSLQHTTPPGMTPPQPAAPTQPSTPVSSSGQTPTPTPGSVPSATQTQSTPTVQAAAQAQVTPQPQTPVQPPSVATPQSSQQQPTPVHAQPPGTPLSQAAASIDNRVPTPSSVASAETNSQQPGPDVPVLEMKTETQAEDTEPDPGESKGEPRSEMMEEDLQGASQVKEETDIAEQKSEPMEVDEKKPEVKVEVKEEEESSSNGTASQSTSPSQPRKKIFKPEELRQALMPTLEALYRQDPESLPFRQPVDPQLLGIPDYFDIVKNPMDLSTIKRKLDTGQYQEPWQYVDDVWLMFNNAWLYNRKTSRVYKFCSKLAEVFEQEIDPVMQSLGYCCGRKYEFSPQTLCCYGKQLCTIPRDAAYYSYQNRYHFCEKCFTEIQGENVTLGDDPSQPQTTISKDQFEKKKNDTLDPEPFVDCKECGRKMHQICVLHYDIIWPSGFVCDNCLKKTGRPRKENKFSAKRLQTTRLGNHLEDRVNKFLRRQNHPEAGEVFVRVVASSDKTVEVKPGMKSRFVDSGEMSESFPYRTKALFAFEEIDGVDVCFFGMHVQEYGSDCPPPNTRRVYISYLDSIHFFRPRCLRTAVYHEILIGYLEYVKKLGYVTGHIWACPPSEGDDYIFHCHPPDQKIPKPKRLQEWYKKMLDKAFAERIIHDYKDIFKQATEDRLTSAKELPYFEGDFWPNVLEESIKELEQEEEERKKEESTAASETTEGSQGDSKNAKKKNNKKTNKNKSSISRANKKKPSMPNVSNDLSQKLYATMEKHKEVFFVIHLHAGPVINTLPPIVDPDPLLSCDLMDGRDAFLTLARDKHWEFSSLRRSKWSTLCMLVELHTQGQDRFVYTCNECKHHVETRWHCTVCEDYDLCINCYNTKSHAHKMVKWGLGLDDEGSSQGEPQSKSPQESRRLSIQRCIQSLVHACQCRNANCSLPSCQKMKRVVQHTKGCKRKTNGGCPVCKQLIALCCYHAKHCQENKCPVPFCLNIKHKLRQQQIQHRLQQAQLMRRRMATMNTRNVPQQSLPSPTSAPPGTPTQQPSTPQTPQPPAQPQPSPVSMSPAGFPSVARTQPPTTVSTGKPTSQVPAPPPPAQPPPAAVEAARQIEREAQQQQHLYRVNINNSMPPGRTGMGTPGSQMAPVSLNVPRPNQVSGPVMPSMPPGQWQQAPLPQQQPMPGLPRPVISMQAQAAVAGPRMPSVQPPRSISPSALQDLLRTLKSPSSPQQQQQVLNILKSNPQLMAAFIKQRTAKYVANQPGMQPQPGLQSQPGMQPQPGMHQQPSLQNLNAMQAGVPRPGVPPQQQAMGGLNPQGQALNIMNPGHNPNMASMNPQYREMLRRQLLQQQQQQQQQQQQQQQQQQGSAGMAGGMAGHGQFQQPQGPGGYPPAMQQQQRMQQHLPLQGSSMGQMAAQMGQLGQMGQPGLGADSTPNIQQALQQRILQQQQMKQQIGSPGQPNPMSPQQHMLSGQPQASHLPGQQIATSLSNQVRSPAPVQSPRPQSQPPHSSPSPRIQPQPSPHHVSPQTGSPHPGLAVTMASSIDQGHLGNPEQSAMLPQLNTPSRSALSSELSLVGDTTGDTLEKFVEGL

[2] = biological target: T1, CREB-binding protein; assay: Competitive binding affinity to partial length human CREBBP expressed in Escherichia coli BL21 after 1 hr by BROMOscan assay
Target sequence in this assay (Q92793 whole entry): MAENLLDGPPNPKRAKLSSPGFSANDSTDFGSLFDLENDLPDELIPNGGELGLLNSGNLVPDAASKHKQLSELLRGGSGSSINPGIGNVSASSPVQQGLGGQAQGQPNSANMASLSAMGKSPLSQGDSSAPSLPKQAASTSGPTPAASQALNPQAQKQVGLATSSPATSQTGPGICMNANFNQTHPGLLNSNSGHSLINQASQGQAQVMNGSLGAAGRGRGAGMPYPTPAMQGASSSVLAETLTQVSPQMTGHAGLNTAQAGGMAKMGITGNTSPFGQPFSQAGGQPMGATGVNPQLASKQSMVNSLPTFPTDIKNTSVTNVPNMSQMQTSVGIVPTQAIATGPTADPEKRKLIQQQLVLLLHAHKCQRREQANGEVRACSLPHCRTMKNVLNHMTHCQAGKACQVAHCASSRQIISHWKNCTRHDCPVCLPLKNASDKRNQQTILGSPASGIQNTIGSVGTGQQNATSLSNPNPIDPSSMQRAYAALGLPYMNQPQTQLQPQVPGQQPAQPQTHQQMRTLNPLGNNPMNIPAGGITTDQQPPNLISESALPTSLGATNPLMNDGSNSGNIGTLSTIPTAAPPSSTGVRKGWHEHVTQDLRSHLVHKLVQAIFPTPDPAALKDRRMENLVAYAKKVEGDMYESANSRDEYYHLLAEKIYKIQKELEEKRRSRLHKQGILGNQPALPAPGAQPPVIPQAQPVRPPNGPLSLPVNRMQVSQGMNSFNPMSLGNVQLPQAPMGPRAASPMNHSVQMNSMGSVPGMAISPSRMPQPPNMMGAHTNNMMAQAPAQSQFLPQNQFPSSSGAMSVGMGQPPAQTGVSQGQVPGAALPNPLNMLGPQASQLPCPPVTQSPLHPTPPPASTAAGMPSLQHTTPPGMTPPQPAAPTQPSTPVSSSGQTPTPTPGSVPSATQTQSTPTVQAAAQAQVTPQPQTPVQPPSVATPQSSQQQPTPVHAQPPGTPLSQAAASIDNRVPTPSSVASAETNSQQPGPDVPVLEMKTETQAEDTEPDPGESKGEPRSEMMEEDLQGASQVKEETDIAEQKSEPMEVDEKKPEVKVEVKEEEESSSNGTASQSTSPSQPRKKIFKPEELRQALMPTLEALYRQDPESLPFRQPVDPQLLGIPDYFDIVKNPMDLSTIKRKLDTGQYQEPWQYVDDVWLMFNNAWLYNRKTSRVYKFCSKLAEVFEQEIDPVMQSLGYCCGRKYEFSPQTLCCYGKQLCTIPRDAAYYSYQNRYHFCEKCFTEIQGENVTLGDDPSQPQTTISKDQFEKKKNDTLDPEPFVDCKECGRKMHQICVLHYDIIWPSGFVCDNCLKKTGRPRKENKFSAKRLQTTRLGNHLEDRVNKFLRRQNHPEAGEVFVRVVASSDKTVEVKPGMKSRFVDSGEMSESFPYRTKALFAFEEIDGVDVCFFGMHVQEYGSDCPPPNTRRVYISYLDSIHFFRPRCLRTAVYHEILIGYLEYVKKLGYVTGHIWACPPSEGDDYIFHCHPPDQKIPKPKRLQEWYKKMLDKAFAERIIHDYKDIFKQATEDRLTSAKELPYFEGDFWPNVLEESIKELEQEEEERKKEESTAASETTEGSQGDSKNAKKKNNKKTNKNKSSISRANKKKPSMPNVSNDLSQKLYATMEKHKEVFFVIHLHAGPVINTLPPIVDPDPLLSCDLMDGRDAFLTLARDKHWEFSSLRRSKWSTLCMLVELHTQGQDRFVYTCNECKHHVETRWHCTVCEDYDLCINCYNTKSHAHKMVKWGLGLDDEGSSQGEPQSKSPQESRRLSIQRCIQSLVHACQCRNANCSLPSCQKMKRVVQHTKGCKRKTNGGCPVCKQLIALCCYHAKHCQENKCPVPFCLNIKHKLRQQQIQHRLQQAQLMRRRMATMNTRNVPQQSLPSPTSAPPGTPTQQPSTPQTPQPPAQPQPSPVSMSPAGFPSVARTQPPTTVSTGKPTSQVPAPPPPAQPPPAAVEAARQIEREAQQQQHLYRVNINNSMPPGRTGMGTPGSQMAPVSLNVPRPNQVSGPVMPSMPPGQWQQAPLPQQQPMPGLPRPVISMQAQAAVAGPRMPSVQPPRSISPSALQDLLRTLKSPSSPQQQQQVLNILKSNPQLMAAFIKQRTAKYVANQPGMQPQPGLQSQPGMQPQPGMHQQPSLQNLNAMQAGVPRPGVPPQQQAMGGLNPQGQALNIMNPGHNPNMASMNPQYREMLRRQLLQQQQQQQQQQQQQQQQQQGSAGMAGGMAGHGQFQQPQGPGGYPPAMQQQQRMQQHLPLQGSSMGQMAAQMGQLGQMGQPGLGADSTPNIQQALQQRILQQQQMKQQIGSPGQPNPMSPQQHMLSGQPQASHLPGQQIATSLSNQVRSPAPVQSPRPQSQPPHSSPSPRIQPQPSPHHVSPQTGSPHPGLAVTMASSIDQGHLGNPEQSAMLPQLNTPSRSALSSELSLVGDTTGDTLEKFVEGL

[3] = biological target: T1, CREB-binding protein; assay: Binding affinity to N-terminal GST-tagged recombinant human CREBBP expressed in Escherichia coli after 2 hrs using BET bromodomain ligand by TR-FRET assay
Target sequence in this assay (Q92793 whole entry): as above

[4] = biological target: T1, CREB-binding protein; assay: Competitive binding affinity to partial length human CREBBP expressed in Escherichia coli BL21 at 50 uM after 1 hr by BROMOscan assay relative to control
Target sequence in this assay (Q92793 2-2442 limits assumed): as the sequence (Q92793 2-2442 limits assumed) above

[5] = organism: Homo sapiens; assay: Selectivity ratio of Kd for BRD4 bromodomain 1 (unknown origin) to Kd for partial length human CREBBP expressed in Escherichia coli BL21
[6] = biological target: T1, CREB-binding protein; assay: Binding affinity to CREBBP (unknown origin) by fluorescence polarization assay
Target sequence in this assay (Q92793 whole entry): as the sequence (Q92793 whole entry) above

Structure (SMILES)	ΔTm [1]	IC50 [3]	Activity [4]	also measured
CCn1cnnc1CNC(=O)c1[nH]c(C)c(C(C)=O)c1C	1.3 °C	–	5%	–
CCOc1ccc(C(C)=O)cc1NC(=O)c1cccc(C(=O)O)c1	–	–	–	Ratio [5]: > 65
CC(=O)c1c(C)[nH]c(C(=O)Nc2cccc(C(=O)O)c2)c1C	2.3 °C	1.5 µM	–	Kd [2]: 4.2 µM
CC(=O)NCCCC[C@@H]1NC(=O)[C@H](CCCCN)NC(=O)[C@H](Cc2c[nH]c3ccccc23)NC(=O)[C@@H](NC(C)=O)CSSC[C@@H](C(=O)N[C@@H](Cc2ccccc2)C(=O)N[C@@H](CCCCN)C(N)=O)NC(=O)[C@H](CC(C)C)NC1=O (HELM PEPTIDE1{[ac].C.W.K.K.L.C.F.K.[am]}|PEPTIDE2{[ac]}$PEPTIDE1,PEPTIDE2,5:R3-1:R2|PEPTIDE1,PEPTIDE1,2:R3-7:R3$$$V2.0)	–	–	–	IC50 [6]: 5 µM

Second part, led by results:

ΔTm [1]	IC50 [3]	Activity [4]	Structure (SMILES)	also measured
0.3 °C	> 100 µM	9%	CC(=O)c1c(C)[nH]c(C(=O)Nc2cc(-c3nnco3)ccc2C)c1C	Kd [2]: 13 µM
–	–	20%	COC(=O)c1ccc(C)c(NC(=O)c2[nH]c(C)c(C(C)=O)c2C)c1	–
0.3 °C	–	3%	CCCc1c(C(=O)NCc2c(C)cc(C)[nH]c2=O)[nH]c(C)c1C(C)=O	–
1.4 °C	> 10 µM	–	CC(=O)c1c(C)[nH]c(C(=O)Nc2cc(C(=O)O)ccc2C)c1C	–
